ChEMBL document CHEMBL3885861, “Open TG-GATES”

Organism: Rattus norvegicus
Experiment: Open TG-GATES - Regimen: Single
Format: toxicity, organism-based, Sprague-Dawley
Parameters: regimen Single, gender Male, age 6 weeks
Conditions: in vivo, po, route gavage; for APTT / Bas / Eos / Fbg / Hb / Ht / Lym / MCH / MCHC / MCV / Mono / Neu / PT / Plat / RBC / Ret / WBC: tissue Blood; for KIDNEY_L / KIDNEY_R / KIDNEY_TOTAL: tissue Kidney; for LIVER: tissue Liver; for ALP / ALT / AST / BUN / CRE / DBIL / GLC / K / Na / PL / RALB / TBIL / TC / TG / TP / gamma-GTP: tissue Plasma
[1] = 75 mg/kg, 3 h, dose level Middle
[2] = 75 mg/kg, 6 h, dose level Middle
[3] = 75 mg/kg, 9 h, dose level Middle
[4] = 75 mg/kg, 24 h, dose level Middle
[5] = 250 mg/kg, 3 h, dose level High
[6] = 250 mg/kg, 6 h, dose level High
[7] = 250 mg/kg, 9 h, dose level High
[8] = 250 mg/kg, 24 h, dose level High

## CN1C(=O)CN=C(c2ccccc2)c2cc(Cl)ccc21 [DIAZEPAM]
[1]
  TERMINAL_BW: 217.1 g
  APTT: 15.6 s
  Bas: 0%
  Eos: 1.2%
  Fbg: 212.4 mg/dL
  Hb: 13.8 g/dL
  Ht: 41.7%
  Lym: 77.2%
  MCH: 22.1 pg
  MCHC: 33.1%
  MCV: 66.8 fL
  Mono: 6.2%
  Neu: 15.6%
  PT: 12.7 s
  Plat: 103.8 x10_4/uL
  RBC: 624.4 x10_4/ul
  Ret: 8.2%
  WBC: 74.8 x10_2/uL
  KIDNEY_L: 1 g
  KIDNEY_R: 1 g
  KIDNEY_TOTAL: 2 g
  LIVER: 10.1 g
  ALP: 916 IU/L
  ALT: 31.2 IU/L
  AST: 62.6 IU/L
  BUN: 12 mg/dL
  CRE: 0.5 mg/dL
  DBIL: 0.028 mg/dL
  GLC: 187.6 mg/dL
  K: 5.1 meq/L
  Na: 139.6 meq/L
  PL: 133 mg/dL
  RALB: 3.9 g/dL
  TBIL: 0.4 mg/dL
  TC: 73 mg/dL
  TG: 46.8 mg/dL
  TP: 5.5 g/dL
  gamma-GTP: 1.6 IU/L
[2]
  TERMINAL_BW: 213.3 g
  APTT: 16.5 s
  Bas: 0%
  Eos: 0.8%
  Fbg: 222.8 mg/dL
  Hb: 13.8 g/dL
  Ht: 41.9%
  Lym: 79.2%
  MCH: 22.3 pg
  MCHC: 33.1%
  MCV: 67.3 fL
  Mono: 7.2%
  Neu: 13.2%
  PT: 12.1 s
  Plat: 105.5 x10_4/uL
  RBC: 621.2 x10_4/ul
  Ret: 8.1%
  WBC: 115.9 x10_2/uL
  KIDNEY_L: 1 g
  KIDNEY_R: 1 g
  KIDNEY_TOTAL: 2 g
  LIVER: 10.3 g
  ALP: 899 IU/L
  ALT: 30.4 IU/L
  AST: 59 IU/L
  BUN: 13 mg/dL
  CRE: 0.5 mg/dL
  DBIL: 0.02 mg/dL
  GLC: 198.2 mg/dL
  K: 5.5 meq/L
  Na: 139.6 meq/L
  PL: 147.8 mg/dL
  RALB: 3.8 g/dL
  TBIL: 0.4 mg/dL
  TC: 77.4 mg/dL
  TG: 78.2 mg/dL
  TP: 5.8 g/dL
  gamma-GTP: 1.6 IU/L
[3]
  TERMINAL_BW: 215.6 g
  APTT: 16.4 s
  Bas: 0%
  Eos: 0.8%
  Fbg: 213.8 mg/dL
  Hb: 13.9 g/dL
  Ht: 41.8%
  Lym: 80.2%
  MCH: 21.1 pg
  MCHC: 33.1%
  MCV: 63.8 fL
  Mono: 5.4%
  Neu: 13.8%
  PT: 12.4 s
  Plat: 101.8 x10_4/uL
  RBC: 655.6 x10_4/ul
  Ret: 8.2%
  WBC: 90.1 x10_2/uL
  KIDNEY_L: 1 g
  KIDNEY_R: 1 g
  KIDNEY_TOTAL: 1.9 g
  LIVER: 9.7 g
  ALP: 771 IU/L
  ALT: 33 IU/L
  AST: 62.8 IU/L
  BUN: 14.2 mg/dL
  CRE: 0.6 mg/dL
  DBIL: 0.048 mg/dL
  GLC: 208 mg/dL
  K: 4.5 meq/L
  Na: 140 meq/L
  PL: 143.8 mg/dL
  RALB: 3.8 g/dL
  TBIL: 0.4 mg/dL
  TC: 71 mg/dL
  TG: 80.6 mg/dL
  TP: 5.7 g/dL
  gamma-GTP: 1.4 IU/L
[4]
  TERMINAL_BW: 230.6 g
  APTT: 16.2 s
  Bas: 0%
  Eos: 0.8%
  Fbg: 208.2 mg/dL
  Hb: 13.6 g/dL
  Ht: 40.9%
  Lym: 79.4%
  MCH: 21.6 pg
  MCHC: 33.2%
  MCV: 65.1 fL
  Mono: 5.6%
  Neu: 14%
  PT: 12.3 s
  Plat: 103.8 x10_4/uL
  RBC: 628.4 x10_4/ul
  Ret: 8%
  WBC: 115 x10_2/uL
  KIDNEY_L: 1 g
  KIDNEY_R: 1.1 g
  KIDNEY_TOTAL: 2.1 g
  LIVER: 11.2 g
  ALP: 921 IU/L
  ALT: 37.2 IU/L
  AST: 64 IU/L
  BUN: 17.8 mg/dL
  CRE: 0.6 mg/dL
  DBIL: 0.012 mg/dL
  GLC: 199 mg/dL
  K: 5.1 meq/L
  Na: 139.4 meq/L
  PL: 141.6 mg/dL
  RALB: 4 g/dL
  TBIL: 0.4 mg/dL
  TC: 75.6 mg/dL
  TG: 97.4 mg/dL
  TP: 5.8 g/dL
  gamma-GTP: 1.2 IU/L
[5]
  TERMINAL_BW: 215.9 g
  APTT: 16.1 s
  Bas: 0%
  Eos: 1%
  Fbg: 213.4 mg/dL
  Hb: 13.6 g/dL
  Ht: 41%
  Lym: 75.8%
  MCH: 22.1 pg
  MCHC: 33.1%
  MCV: 66.7 fL
  Mono: 5.6%
  Neu: 17.6%
  PT: 12.7 s
  Plat: 109.5 x10_4/uL
  RBC: 615 x10_4/ul
  Ret: 8.8%
  WBC: 72.4 x10_2/uL
  KIDNEY_L: 1 g
  KIDNEY_R: 1 g
  KIDNEY_TOTAL: 2 g
  LIVER: 10.3 g
  ALP: 734 IU/L
  ALT: 34.2 IU/L
  AST: 67.4 IU/L
  BUN: 12.2 mg/dL
  CRE: 0.5 mg/dL
  DBIL: 0.028 mg/dL
  GLC: 196.2 mg/dL
  K: 4.7 meq/L
  Na: 140 meq/L
  PL: 144.4 mg/dL
  RALB: 3.7 g/dL
  TBIL: 0.4 mg/dL
  TC: 79.4 mg/dL
  TG: 64.2 mg/dL
  TP: 5.7 g/dL
  gamma-GTP: 1.4 IU/L
[6]
  TERMINAL_BW: 216.7 g
  APTT: 16.1 s
  Bas: 0%
  Eos: 0.8%
  Fbg: 240.4 mg/dL
  Hb: 14.3 g/dL
  Ht: 43.4%
  Lym: 77.2%
  MCH: 21.7 pg
  MCHC: 32.9%
  MCV: 65.9 fL
  Mono: 6.4%
  Neu: 16%
  PT: 12.3 s
  Plat: 120.4 x10_4/uL
  RBC: 659.8 x10_4/ul
  Ret: 8.4%
  WBC: 85.8 x10_2/uL
  KIDNEY_L: 1 g
  KIDNEY_R: 1 g
  KIDNEY_TOTAL: 2 g
  LIVER: 10.3 g
  ALP: 823.6 IU/L
  ALT: 27.8 IU/L
  AST: 68 IU/L
  BUN: 15.8 mg/dL
  CRE: 0.6 mg/dL
  DBIL: 0.008 mg/dL
  GLC: 210.6 mg/dL
  K: 5.6 meq/L
  Na: 141.6 meq/L
  PL: 161 mg/dL
  RALB: 4.1 g/dL
  TBIL: 0.5 mg/dL
  TC: 85.6 mg/dL
  TG: 74.4 mg/dL
  TP: 6.2 g/dL
  gamma-GTP: 1.8 IU/L
[7]
  TERMINAL_BW: 217 g
  APTT: 16.2 s
  Bas: 0%
  Eos: 1%
  Fbg: 240.5 mg/dL
  Hb: 14.2 g/dL
  Ht: 43%
  Lym: 80.5%
  MCH: 21.8 pg
  MCHC: 33%
  MCV: 66 fL
  Mono: 6.2%
  Neu: 12%
  PT: 12.2 s
  Plat: 118.3 x10_4/uL
  RBC: 652.2 x10_4/ul
  Ret: 8.2%
  WBC: 104.3 x10_2/uL
  KIDNEY_L: 1 g
  KIDNEY_R: 1 g
  KIDNEY_TOTAL: 2 g
  LIVER: 10 g
  ALP: 725 IU/L
  ALT: 25.8 IU/L
  AST: 67 IU/L
  BUN: 16.5 mg/dL
  CRE: 0.6 mg/dL
  DBIL: 0.0325 mg/dL
  GLC: 214.8 mg/dL
  K: 4.8 meq/L
  Na: 141.8 meq/L
  PL: 147.5 mg/dL
  RALB: 3.8 g/dL
  TBIL: 0.4 mg/dL
  TC: 84.5 mg/dL
  TG: 70.8 mg/dL
  TP: 5.8 g/dL
  gamma-GTP: 1.2 IU/L
[8]
  TERMINAL_BW: 235.1 g
  APTT: 15.6 s
  Bas: 0%
  Eos: 0.8%
  Fbg: 211 mg/dL
  Hb: 13.5 g/dL
  Ht: 40.5%
  Lym: 75%
  MCH: 21.9 pg
  MCHC: 33.4%
  MCV: 65.4 fL
  Mono: 7.6%
  Neu: 16.6%
  PT: 12.2 s
  Plat: 103.7 x10_4/uL
  RBC: 620.4 x10_4/ul
  Ret: 8.3%
  WBC: 133.5 x10_2/uL
  KIDNEY_L: 1.1 g
  KIDNEY_R: 1.1 g
  KIDNEY_TOTAL: 2.2 g
  LIVER: 12 g
  ALP: 1023.4 IU/L
  ALT: 37 IU/L
  AST: 57.4 IU/L
  BUN: 14.4 mg/dL
  CRE: 0.5 mg/dL
  DBIL: 0.006 mg/dL
  GLC: 201.6 mg/dL
  K: 5.1 meq/L
  Na: 140 meq/L
  PL: 167.4 mg/dL
  RALB: 4 g/dL
  TBIL: 0.4 mg/dL
  TC: 91.6 mg/dL
  TG: 105.8 mg/dL
  TP: 5.9 g/dL
  gamma-GTP: 1.4 IU/L
